Reference: PMC8148064 (Acta Pharmaceutica Sinica. B, 2020)
pKd: −log10 of the molar value.

Target: adenylyl cyclase-associated protein 1 (CAP1) (Homo sapiens, UniProt Q01518)
Assay: ITC with purified CAP1
Assay type: binding

Sequence of adenylyl cyclase-associated protein 1 (CAP1) (Q01518 2-475): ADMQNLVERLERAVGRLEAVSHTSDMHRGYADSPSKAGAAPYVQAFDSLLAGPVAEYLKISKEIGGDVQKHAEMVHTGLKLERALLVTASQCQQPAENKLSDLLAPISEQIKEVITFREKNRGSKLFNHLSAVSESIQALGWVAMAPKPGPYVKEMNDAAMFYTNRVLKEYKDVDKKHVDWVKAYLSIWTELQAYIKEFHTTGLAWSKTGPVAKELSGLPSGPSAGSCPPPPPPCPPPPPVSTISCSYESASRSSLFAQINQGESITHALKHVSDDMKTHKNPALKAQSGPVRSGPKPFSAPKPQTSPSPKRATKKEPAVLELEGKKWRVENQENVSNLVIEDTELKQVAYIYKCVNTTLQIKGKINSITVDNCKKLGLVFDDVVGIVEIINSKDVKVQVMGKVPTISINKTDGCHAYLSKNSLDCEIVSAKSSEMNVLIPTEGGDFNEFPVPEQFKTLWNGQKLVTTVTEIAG

## CC1=C(O)C(=O)C=C2C1=CC=C1[C@@]2(C)CC[C@@]2(C)[C@@H]3C[C@](C)(C(=O)O)CC[C@]3(C)CC[C@]12C [celastrol]
  pKd: 6.96
